Where “and” joins values, the source holds several entries; their conditions need not be identical. Equal values may be shown once. Non-standard residues stand in square brackets, D forms with d.

Here are results for two substances from US20250262273A1, “MODIFIED CAVEOLIN-1 PEPTIDES FOR THE TREATMENT OF CHRONIC KIDNEY DISEASE” (Rein Therapeutics, Inc., priority 2021, published 2025).

In experiment [1] the test system is Col4a3−/− mice on a 129S1/SvlmJ background. As to the kind of experiment: Col4a3−/− mouse model of Alport syndrome, Study 2: four weeks of treatment. Particulars: for Moderately Sclerotic Glom / Severely Sclerotic Glom / Moderately Sclerotic Glom (%) / Sclerotic Glom (%) / Severely Sclerotic Glom (%): 8 week-old, 4 weeks daily i.p. 0.0022 mg/g; for Moderately Sclerotic Glom / Severely Sclerotic Glom: count per individual mouse; for Moderately Sclerotic Glom (%) / Sclerotic Glom (%) / Severely Sclerotic Glom (%): per individual mouse. Type of experiment: in vivo. On the procedure: (§1) The objective of this study was to evaluate the efficacy of the modified Cav-1 peptide APi2355 in ameliorating kidney fibrosis and disease using the Col4a3−/− mouse model of Alport syndrome. Alport syndrome mice (knockouts) have reduced Cav-1 expression in glomerulae tubules and develop glomerular fibrosis.
Four week-old Col4a3−/− mice on a 129S1/SvlmJ background were intraperitoneally injected daily with APi2355 (SEQ ID NO: 8, 0.0022 mg/g body weight) or with normal saline for 4 weeks. Urine was collected prior to treatment at 4 weeks-old and at 6, 7, and 8-weeks-old following treatment to monitor for glomerular permselectivity by measuring albumin to creatinine (A/C) ratios. Blood was collected prior to treatment at 4 weeks-old and at 6 and 8 weeks-old following treatment to monitor for glomerular filtration rate using the BUN assay and kidney tissue was collected following sacrifice to assess for renal injury and fibrosis. Mouse identification numbers were used to differentiate treatment groups.

Experiment [2] shares this test system. Description: Col4a3−/− mouse model of Alport syndrome, Study 1: two weeks of treatment. The note with it: for immunofluorescence staining of collagen I and nidogen on kidney tissue / immunofluorescence staining of collagen I and αSMA on kidney tissue: 0.0022 mg/g i.p. daily for 2 weeks, same finding in saline-treated mice. Type of experiment: in vivo.
Excerpt: as §1
Col4a3−/− on the 129S1/SvlmJ develop end-stage renal disease at a faster rate compared to Col4a3−/− mice on the C57BL/6 background. Five week-old (Cohort 2) and 6 week-old (Cohort 1) Col4a3−/− mice on a 129S1/SvlmJ background were intraperitoneally injected daily with APi2355 (SEQ ID NO: 8, 0.0022 mg/g body weight) or with normal saline for 2 weeks. Urine was collected prior to treatment and on the day of sacrifice to monitor for glomerular permselectivity by measuring albumin to creatinine (A/C) ratios. Blood was collected on the day of sacrifice to monitor for glomerular filtration rate by blood urea nitrogen (BUN) assay and kidney tissue was collected following sacrifice to assess for renal injury and fibrosis. Mouse identification numbers were used to differentiate treatment groups.

For experiment [3], the system named is bleomycin-treated aged male mice. As to the kind of experiment: Bleomycin model of lung fibrosis in aged mice, Study 1 (Total Collagen Assay). Type of experiment: in vivo, mouse. The note with it: bleomycin 4 U/kg intratracheal, mice 74 to 76 weeks-old, dry powder inhalation, compared to control peptide. The source says: (§2) The objective of this study was to evaluate the modified Cav-1 peptide CSP-7 in a bleomycin model of idiopathic pulmonary fibrosis and acute respiratory distress syndrome (ARDS). Aged male mice were selected to closely match the population of humans most vulnerable to ARDS.
Aged male mice, which have a higher burden of senescent cells and therefore less regenerative potential, were used to test the efficacy of CSP-7 (SEQ ID NO: 3). Mice were between 74 to 76 weeks-old at the time of intratracheal bleomycin installation (4 U/kg body weight; n=5-8 mice/group). The Total Collagen Assay (QuickZyme Biosciences) was used to assess total collagen in lung tissue, which first hydrolyzes proteins in the lung homogenate then oxidizes hydroxyproline and stains.

For another experiment, the system named is BLM-treated aged mice. Description: Bleomycin model of lung fibrosis in aged mice, Study 2. The experiment is classed as in vivo. Particulars: BLM 8 U/kg intratracheal, 73-74 week-old mice, 0.5 mg/mouse dry powder inhalation from day 14, sacrifice day 21, compared to control peptide. As to the method:
as §2
Bleomycin (BLM, 8 U/kg) was administered intratracheally to 73-74 week-old mice (n=52) expecting approximately 50% loss of mice due to BLM-induced lung injury. On day 14 post-instillation, CSP-7 and a control peptide (CP) was administered to mice via dry powder inhalation (DPI) or intraperitoneal injection (IP) as shown in Table B below. On day 21 post-instillation, mice were sacrificed and blood and tissues were collected for analysis. Statistics were performed using Dunnett's multiple comparison test.

Setting [4] is: treatment starting at 4 weeks of age, 4 weeks, vs saline.
The mark [5] stands for this setting: Cohort 1 (treatment start 6 weeks-old).
The mark [6] stands for this setting: Cohort 2 (treatment start 5 weeks-old).

“Ac-aaEGKASFTTFTVTKGSaa-NH2 (Ac-[dA][dA]EGKASFTTFTVTKGS[dA][dA]-NH2; SMILES CC(=O)N[C@H](C)C(=O)N[C@H](C)C(=O)N[C@@H](CCC(=O)O)C(=O)NCC(=O)N[C@@H](CCCCN)C(=O)N[C@@H](C)C(=O)N[C@@H](CO)C(=O)N[C@@H](Cc1ccccc1)C(=O)N[C@H](C(=O)N[C@H](C(=O)N[C@@H](Cc1ccccc1)C(=O)N[C@H](C(=O)N[C@H](C(=O)N[C@H](C(=O)N[C@@H](CCCCN)C(=O)NCC(=O)N[C@@H](CO)C(=O)N[C@H](C)C(=O)N[C@H](C)C(N)=O)[C@@H](C)O)C(C)C)[C@@H](C)O)[C@@H](C)O)[C@@H](C)O) [APi2355, modified Cav-1 peptide]”: in experiment [1] (female Col4a3−/− mice), the “Moderately Sclerotic Glom” value was 0 and 1 (2×); the “Severely Sclerotic Glom” value came to 4; the “Moderately Sclerotic Glom (%)” value was 0.0% and 2.0% and 2.1%; the “Sclerotic Glom (%)” value is 7.4% and 9.8% and 10.6%. In addition, the “Severely Sclerotic Glom (%)” value in experiment [1] (female Col4a3−/− mice) was 7.4% and 7.8% and 8.5%. The “percentage of sclerotic glomeruli as assayed by collagen I deposition” value in experiment [1] (females, treatment starting at 4 weeks of age, 4 weeks, vs saline) was “reduced the percentage of sclerotic glomeruli in females”. Moreover, in experiment [1] (male Col4a3−/− mouse), the “Moderately Sclerotic Glom” value came to 6, the “Severely Sclerotic Glom” value is on record as 21, the “Moderately Sclerotic Glom (%)” value is 15.0% and the “Sclerotic Glom (%)” value was found to be 67.5%. In experiment [1] (male Col4a3−/− mouse), the “Severely Sclerotic Glom (%)” value amounted to 52.5%. Also, the glomerular fibrosis entry in experiment [1] (mouse model of Alport syndrome, overall conclusion) was “reduced glomerular fibrosis”. In experiment [1] (setting [4]), the “progression of BUN” value was “did not slow the progression” and the progression of albuminuria entry was “did not slow the progression”. In experiment [2] (setting [5]), the “immunofluorescence staining of collagen I and nidogen on kidney tissue” value was “additional staining in sclerotic glomeruli”; the “immunofluorescence staining of collagen I and αSMA on kidney tissue” value is listed as “additional staining in sclerotic glomeruli”. For the same substance, in experiment [2] (Cohort 1 and Cohort 2, 2 weeks of treatment, same in saline-treated mice), the “kidney sclerosis, overall” value was “severe sclerosis in the interstitium and many sclerotic glomeruli”. In experiment [2] (setting [6]), the “immunofluorescence staining of collagen I and nidogen on kidney tissue” value is “additional staining in sclerotic glomeruli”; the “immunofluorescence staining of collagen I and αSMA on kidney tissue” value was “additional staining in sclerotic glomeruli”.
As to “FTTFTVT (Modified Caveolin-1 peptide) [CSP-7, seven amino acid fragment of the human CSD of caveolin-1]”, the “total collagen in the lung” value (in experiment [3]; in the experiment on BLM-treated aged mice) was “reduction in total collagen” each time.
